According to patent US20260248805A1, “DIAMINOPHENOTHIAZINE FOR THE TREATMENT OF MICROVASCULAR BRAIN DISEASE” (priority 2023, published 2026):
Entries after “also recorded” stand apart in the source; their conditions may differ.

Experiments:
[1] = target: tau aggregation (Homo sapiens, UniProt P10636); settings: in vitro (LMTM: in vitro and in vivo); cited from earlier work
[2] = test system: tau pathology; settings: transgenic mouse tau models; brain concentrations consistent with human oral dosing; cited from earlier work
[3] = test system: PHFs from Alzheimer's disease brain tissue; settings: cited from earlier work
[4] = test system: white matter hyperintensities (microvascular pathology); test: Phase 3 clinical trials of LMTM in AD: MRI total lesion volume (TLV) of white matter hyperintensities; assay type: in vivo, human; settings: for exposure dependence of rate of progression of microvascular pathology: low dose monotherapy, FIG. 6, TLV change from baseline; for estimate: difference in increase in TLV, LMTM monotherapy vs LMTM in combination with AD symptomatic treatments: FIGS. 7A and B, no unit printed at the table; for estimate: difference in increase in Total Lesion volume (TLV), LMTM monotherapy vs LMTM in combination with symptomatic treatments for AD: AD patients, MRI
Excerpt: The design and results from two large Phase 3, double-blind, controlled, randomised clinical trials of hydromethylthionine in probable AD were described elsewhere. Study TRx-237-015 (clintrials.gov NCT01689246), involved 890 mild/moderate AD patients and study TRx-237-005 (clintrials.gov NCT01689233), had 800 patients with mild AD meeting NIA/AA diagnostic criteria for probable AD. Eligible patients were aged less than 90 years. Patients were excluded if they had: a recent history of poorly controlled hypertension, or clinically significant cardiovascular disease (such as hospitalization for acute coronary syndrome or symptoms consistent with angina pectoris), or a modified Hachinski ischemic score of >4. Patients were also excluded if significant vascular pathology was seen on brain MRI, including large confluent white matter hyperintensities that would lead to a diagnosis other than probable AD. A detailed list of all inclusion and exclusion criteria for both trials is available in the supplementary materials. FDG-PET was performed at baseline in only a subgroup of TRx-237-015 subjects (n=198) but was required for all participants in TRx-237-005 if the appropriate imaging facilities were available at the study site. Of 1690 participants enrolled in both studies, 794 had available FDG-PET scans at baseline.
In this trial only GE, Siemens, or Philips (1.5-Tesla and 3.0-Tesla) machines were used to reduce the variability in the imaging data. The MRI sequences utilised in this protocol were based on the ADNI protocol. The recommended range of acquisition parameters for individual sequences for GE, Siemens, and Philips MRI machines were developed after technical evaluation forms from all sites. The following sequences were included: FLAIR: This sequence allows assessment of other clinically significant focal intracranial pathology and for detection and quantification of WMHs; Unenhanced T1-weighted, 3-dimensional sequence (e.g., MP RAGE or SPGR) were used for evaluation of the whole brain, ventricular and hippocampal volumes and WMH.
Brain MRI derived WMHs were quantified using the Lesion Growth Algorithm (LGA) part of the Lesion Segmentation Toolbox (LST [28]) which is an automated method for extracting WMH and has been validated in various datasets. This algorithm uses T1 and FLAIR MR images to classify voxels, with T1 images used to segment tissue classes white matter (WM), grey matter (GM), cerebrospinal fluid (CSF) and fluid attenuated inversion recovery (FLAIR) imaging used to determine areas of hyperintense signal (i.e., WMH). WMH data are provided as whole-brain total lesion volume (TLV), measured in cm^3.
Exposure dependence groups were defined in accordance with the methods described in more detail in WO2020/020751 discussed hereinbefore.

[5] = compared with the MT+ form; cited from earlier work
[6] = cited from earlier work
[7] = test system: Alzheimer's disease; settings: monotherapy vs combination with AChEIs and/or memantine; cited from earlier work

Sequence of tau aggregation (P10636 whole entry): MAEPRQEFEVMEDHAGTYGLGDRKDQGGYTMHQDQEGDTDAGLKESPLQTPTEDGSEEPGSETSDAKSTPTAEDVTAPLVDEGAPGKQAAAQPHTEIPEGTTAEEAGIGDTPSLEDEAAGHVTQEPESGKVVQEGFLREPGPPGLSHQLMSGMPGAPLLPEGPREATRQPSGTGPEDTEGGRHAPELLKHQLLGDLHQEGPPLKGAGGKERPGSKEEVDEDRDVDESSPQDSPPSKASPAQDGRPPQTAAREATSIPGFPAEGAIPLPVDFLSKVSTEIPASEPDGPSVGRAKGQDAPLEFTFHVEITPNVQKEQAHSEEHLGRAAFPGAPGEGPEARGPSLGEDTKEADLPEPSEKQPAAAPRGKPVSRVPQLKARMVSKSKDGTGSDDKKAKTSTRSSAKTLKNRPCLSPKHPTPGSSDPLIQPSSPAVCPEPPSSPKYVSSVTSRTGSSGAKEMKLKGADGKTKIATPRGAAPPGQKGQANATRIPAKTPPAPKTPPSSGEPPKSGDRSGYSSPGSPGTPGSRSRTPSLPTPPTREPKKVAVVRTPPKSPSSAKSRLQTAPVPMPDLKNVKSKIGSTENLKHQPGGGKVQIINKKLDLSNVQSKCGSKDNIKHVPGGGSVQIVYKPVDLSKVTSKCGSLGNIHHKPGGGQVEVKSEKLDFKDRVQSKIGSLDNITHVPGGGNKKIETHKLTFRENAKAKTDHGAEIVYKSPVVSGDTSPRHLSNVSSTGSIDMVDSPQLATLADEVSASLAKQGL

Structure (SMILES) | tau aggregation inhibitor activity [1] | tau pathology and behavioural deficits [2] | dissolution of PHFs [3] | exposure dependence of rate of progression of microvascular pathology [4] | absorption [5] | estimate: difference in increase in TLV, LMTM monotherapy vs LMTM in combination with AD symptomatic treatments ([4]; 4 mg b.i.d. (low dose group)) | estimate: difference in increase in Total Lesion volume (TLV), LMTM monotherapy vs LMTM in combination with symptomatic treatments for AD ([4]; 4 mg b.i.d. (low dose)) [mL] | estimate: difference in increase in Total Lesion volume (TLV), LMTM monotherapy vs LMTM in combination with symptomatic treatments for AD ([4]; 100 mg b.i.d. (high dose)) [mL] | estimate: difference in increase in TLV, LMTM monotherapy vs LMTM in combination with AD symptomatic treatments ([4]; 100 mg b.i.d., high dose (mean of high doses, 150-250 mg/day)) | increase in Total Lesion volume, monotherapy vs combination with symptomatic treatments for AD ([4]; high dose and low dose groups, statistically significant difference) | pharmaceutic properties: solubility and pKa [6] | treatment benefit in AD according to the trial criteria [7]
CN(C)c1ccc2nc3ccc(=[N+](C)C)cc-3sc2c1 [MT, Methylthioninium] | acts as a tau aggregation inhibitor in vitro | reduces tau pathology and associated behavioural deficits | dissolves PHFs from Alzheimer's disease brain tissue | – | – | – | – | – | – | – | – | –
CN(C)c1ccc2c(c1)Sc1cc(N(C)C)ccc1N2 [LMT, N3,N3,N7,N7-tetramethyl-10H-phenothiazine-3,7-diamine] | – | – | – | exposure-dependent reduction in progression of microvascular pathology | – | – | – | – | – | – | – | –
CN(C)c1ccc2c(c1)Sc1cc(N(C)C)ccc1N2.CS(=O)(=O)O.CS(=O)(=O)O [LMTM, N,N,N′,N′-tetramethyl-10H-phenothiazine-3,7-diaminium bis(hydromethanesulfonate)] | retains TAI activity in vitro and in vivo | – | – | exposure-dependent difference in rate of progression of microvascular pathology | not subject to the absorption limitations of the MT^+ form | −0.3494 | -0.3494 | -0.3865 | −0.3865 | less increase in Total Lesion volume; also recorded: less increase in TLV | superior pharmaceutic properties in terms of solubility and pKa | restricted to patients taking LMTM as monotherapy
